Entries after “also recorded” stand apart in the source; their conditions may differ. Where two headings read alike, the source gives them in different places.
Key:
[1] = test system: A549 cells; format: cell-based
[2] = test system: Balb/c mice lung; settings: mouse, in vivo
[3] = test system: A549 cells; format: cell-based; remark: listed apart in the source
[4] = test system: LC3; parameters: species or system Balb/c mice; settings: mouse, in vivo
[5] = test system: Balb/c mice; settings: mouse, in vivo
[6] = test system: Balb/c mice lung; settings: mouse, in vivo; remark: listed apart in the source
[7] = test system: Balb/c mice lung; settings: mouse, in vivo; remark: listed apart in the source
[8] = test system: Balb/c mice lung; settings: mouse, in vivo; remark: listed apart in the source
[9] = test system: A549 cells; format: cell-based; remark: listed apart in the source

Row | SMILES | survival rate of A549 cells [1] | counts of inflammatory cells in lung pathological sections [2] | percentage of cells with EGFP-LC3 agglutination [3] | content of LC3 II in mice lung tissue (ratio to β-actin) [4] | survival curve of mice [5] | lung elasticity [6] | lung wet/dry ratio [7] | lung wet/dry ratio ([7]; ip) | lung injury, pathological sections [8] | percentage of A549 cells with autophagy induced by PAMAM G3, electron microscope [9] | cell autophagy induced by inactivated H5N1 avian influenza virus, electron microscope [9]
1 | Cn1cnc(N)c2ncnc1-2 [3-MA, 3-methyladenine] | decreases the cell death; also recorded: can significantly reduce cell death | reduced the augmentation of the counts inflammatory cells | can be relieved | relieved the occurrence of autophagy | can significantly relieve the death of mice; also recorded: has effect on delaying the death of mice | relieves the changes of lung elasticity; also recorded: has some effect on relieving the induced injury | decreased the augmentation of wet/dry ratio | relieved the increased lung wet/dry ratio | has some effect on ameliorating the lung injury | can be relieved; also recorded: reduced the percentage of cells with autophagy | –
2 | C[S+]([O-])c1ccc(-c2nc(-c3ccncc3)c(-c3ccc(F)cc3)[nH]2)cc1 (stereo not shown) [SB203580] | – | reduced the counts of infiltrated inflammatory cells; also recorded: reduced the augmentation of infiltrated inflammatory cells | – | – | – | – | – | – | has some effect on ameliorating the lung injury; also recorded: has some effect on amelioratiing the lung injury | – | reduced cell autophagy; also recorded: can effectively inhibit the occurrence of autophagy

— US20120238566A1, “USE OF CELL AUTOPHAGY (TYPE II CELL APOPTOSIS) INHIBITORS” (priority 2009, published 2012)
